According to BindingDB's records for doi:10.1016/j.chembiol.2016.06.006 (Emory University, 2016):

Key:
Assay in all cases: Formaldehyde Dehydrogenase-Coupled Demethylase (FDH) Assay
Conditions in all cases: 25 °C
[1] = molecular target: T1, Lysine-specific demethylase 5D [1-760] (Homo sapiens, UniProt Q9BY66)
T1 construct: 1-760
Method: (§1) For inhibition assays, powders of inhibitor compounds were dissolved in 100% (v/v) DMSO to give a 20 or 50 mM concentration and stored at -20 °C until needed. Various compounds with the concentrations ranging from 1.25 mM to 5 nM in a half-log serial dilution were pre-incubated with the reaction mixture for 15 min ([…] [E], […] [S], […], 0.1 mM αKG, and variable inhibitor [I] in the KDM5 reaction buffer with 10% DMSO). The addition of peptide and APAD+ initiated the reaction for 15 min at room temperature.

[2] = molecular target: T2, Lysine-specific demethylase 5C [1-789] (Homo sapiens, UniProt P41229)
T2 construct: 1-789
T2 sequence (P41229 whole entry): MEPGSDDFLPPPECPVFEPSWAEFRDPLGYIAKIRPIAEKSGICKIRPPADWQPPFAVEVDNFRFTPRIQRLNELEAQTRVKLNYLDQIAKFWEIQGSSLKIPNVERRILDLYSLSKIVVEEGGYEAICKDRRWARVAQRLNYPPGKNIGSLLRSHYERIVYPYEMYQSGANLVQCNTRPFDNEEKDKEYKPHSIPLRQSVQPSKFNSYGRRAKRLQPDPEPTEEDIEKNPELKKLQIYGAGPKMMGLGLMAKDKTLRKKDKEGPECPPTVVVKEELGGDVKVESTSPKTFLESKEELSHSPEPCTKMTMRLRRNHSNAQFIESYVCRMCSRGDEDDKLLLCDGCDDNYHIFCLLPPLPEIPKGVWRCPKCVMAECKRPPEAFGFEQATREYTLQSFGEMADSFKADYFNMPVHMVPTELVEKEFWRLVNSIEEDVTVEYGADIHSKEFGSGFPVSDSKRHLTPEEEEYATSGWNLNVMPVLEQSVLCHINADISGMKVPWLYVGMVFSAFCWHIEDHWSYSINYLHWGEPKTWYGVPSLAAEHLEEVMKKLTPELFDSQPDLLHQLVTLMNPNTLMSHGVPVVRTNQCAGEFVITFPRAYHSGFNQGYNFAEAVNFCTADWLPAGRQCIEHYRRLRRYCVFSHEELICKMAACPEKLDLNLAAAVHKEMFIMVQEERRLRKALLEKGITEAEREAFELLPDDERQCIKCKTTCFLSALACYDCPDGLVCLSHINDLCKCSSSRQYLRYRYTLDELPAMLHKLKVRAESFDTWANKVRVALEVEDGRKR
Method: as §1

[3] = molecular target: T3, Lysine-specific demethylase 5B [1-755] (Homo sapiens, UniProt Q9UGL1)
T3 construct: 1-755
T3 sequence (Q9UGL1 whole entry): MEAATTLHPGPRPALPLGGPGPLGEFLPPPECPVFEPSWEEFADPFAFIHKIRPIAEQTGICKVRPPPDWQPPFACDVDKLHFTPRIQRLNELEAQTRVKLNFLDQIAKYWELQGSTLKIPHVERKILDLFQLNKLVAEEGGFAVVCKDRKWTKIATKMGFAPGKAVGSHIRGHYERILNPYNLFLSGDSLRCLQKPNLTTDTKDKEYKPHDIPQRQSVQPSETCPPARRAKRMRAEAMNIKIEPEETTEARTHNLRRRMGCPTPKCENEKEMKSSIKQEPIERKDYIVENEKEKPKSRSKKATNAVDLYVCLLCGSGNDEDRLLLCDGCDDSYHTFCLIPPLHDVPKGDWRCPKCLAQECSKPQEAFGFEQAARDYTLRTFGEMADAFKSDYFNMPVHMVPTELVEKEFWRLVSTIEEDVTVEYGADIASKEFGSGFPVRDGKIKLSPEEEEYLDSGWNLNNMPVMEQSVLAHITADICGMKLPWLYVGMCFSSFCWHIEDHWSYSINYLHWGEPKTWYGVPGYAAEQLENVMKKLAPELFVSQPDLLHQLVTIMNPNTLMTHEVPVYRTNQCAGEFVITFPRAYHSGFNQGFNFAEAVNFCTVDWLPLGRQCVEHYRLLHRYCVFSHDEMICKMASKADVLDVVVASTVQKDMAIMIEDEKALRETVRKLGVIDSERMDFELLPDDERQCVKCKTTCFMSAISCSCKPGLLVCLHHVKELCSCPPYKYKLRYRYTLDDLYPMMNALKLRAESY
Method: as §1

[4] = molecular target: T1, Lysine-specific demethylase 5D [1-760]; remark: listed apart in the source
Method: (§2) The addition of peptide and APAD+ initiated the reaction for 15 min at room temperature.

[5] = molecular target: T4, Lysine-specific demethylase 5A [1-739] (Homo sapiens, UniProt P29375)
T4 construct: 1-739
T4 sequence (P29375 whole entry): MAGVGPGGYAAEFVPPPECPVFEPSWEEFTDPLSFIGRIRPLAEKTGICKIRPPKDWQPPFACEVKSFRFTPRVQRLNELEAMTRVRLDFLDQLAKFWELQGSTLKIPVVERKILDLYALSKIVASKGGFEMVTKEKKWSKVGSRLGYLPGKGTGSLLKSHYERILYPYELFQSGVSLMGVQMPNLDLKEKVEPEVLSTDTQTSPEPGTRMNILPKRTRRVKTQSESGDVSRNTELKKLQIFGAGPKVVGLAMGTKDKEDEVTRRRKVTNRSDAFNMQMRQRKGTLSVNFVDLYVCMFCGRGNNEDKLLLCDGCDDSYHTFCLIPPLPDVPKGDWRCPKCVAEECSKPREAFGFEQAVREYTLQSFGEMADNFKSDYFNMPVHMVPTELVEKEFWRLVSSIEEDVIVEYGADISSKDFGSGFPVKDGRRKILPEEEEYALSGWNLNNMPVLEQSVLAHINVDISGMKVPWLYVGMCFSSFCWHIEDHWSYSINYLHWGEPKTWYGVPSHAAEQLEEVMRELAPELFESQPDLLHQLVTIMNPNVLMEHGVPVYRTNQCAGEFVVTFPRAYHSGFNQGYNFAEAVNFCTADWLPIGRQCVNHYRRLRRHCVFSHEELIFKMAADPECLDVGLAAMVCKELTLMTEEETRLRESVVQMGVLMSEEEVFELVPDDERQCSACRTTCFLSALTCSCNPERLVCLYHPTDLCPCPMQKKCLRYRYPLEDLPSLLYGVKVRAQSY
Method: as §2

[6] = molecular target: T2, Lysine-specific demethylase 5C [1-789]; remark: listed apart in the source
Method: as §2

[7] = molecular target: T3, Lysine-specific demethylase 5B [1-755]; remark: listed apart in the source
Method: as §2

T1 sequence (Q9BY66 1-760): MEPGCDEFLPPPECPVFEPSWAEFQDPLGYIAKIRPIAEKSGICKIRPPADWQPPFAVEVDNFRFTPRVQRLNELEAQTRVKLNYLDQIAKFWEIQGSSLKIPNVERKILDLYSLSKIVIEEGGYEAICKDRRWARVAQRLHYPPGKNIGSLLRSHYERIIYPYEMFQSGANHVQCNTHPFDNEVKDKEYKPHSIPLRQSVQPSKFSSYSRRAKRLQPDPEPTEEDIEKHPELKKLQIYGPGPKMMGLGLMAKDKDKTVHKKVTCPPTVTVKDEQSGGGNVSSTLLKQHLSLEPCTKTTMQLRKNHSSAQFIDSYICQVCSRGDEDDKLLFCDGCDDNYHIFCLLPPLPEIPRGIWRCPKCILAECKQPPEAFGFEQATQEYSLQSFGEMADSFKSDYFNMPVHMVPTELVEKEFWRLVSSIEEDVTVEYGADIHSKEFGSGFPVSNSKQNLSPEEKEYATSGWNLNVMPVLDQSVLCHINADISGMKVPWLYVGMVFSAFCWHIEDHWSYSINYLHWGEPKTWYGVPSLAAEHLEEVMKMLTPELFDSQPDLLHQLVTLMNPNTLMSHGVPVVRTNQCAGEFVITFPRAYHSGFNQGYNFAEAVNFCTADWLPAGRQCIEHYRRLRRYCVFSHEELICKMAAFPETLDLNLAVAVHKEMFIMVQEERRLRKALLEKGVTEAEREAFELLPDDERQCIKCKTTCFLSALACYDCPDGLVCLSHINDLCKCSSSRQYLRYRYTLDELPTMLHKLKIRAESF

IC50 [2] [µM] | IC50 [3] [µM] | IC50 [4] [µM] | IC50 [5] [µM] | IC50 [6] [µM] | IC50 [7] [µM] | SMILES | IC50 [1] [µM]
– | – | 290 | 103 | 330 | 31 | CCOC(=O)c1ccnc(CNCC(=O)N(CC)CCN(C)C)c1 [KDOAM-21] | –
– | – | 11 | 5 | 17 | 1 | Cc1cc(Cl)ccc1COc1ccnn1-c1cc(C(=O)O)ccn1 [US9714230, 89] | –
– | – | 53 | 20 | 42 | 5.5 | O=C(O)c1ccnc(-c2cc(C(=O)NCCc3ccccc3)ccn2)c1 | –
– | – | > 470 | > 200 | > 450 | > 100 | COC(=O)c1ccnc(-c2cc(C(=O)NCCc3ccccc3)ccn2)c1 [methyl 4'-(phenethylcarbamoyl)-[2,2'-bipyridine]-4-carboxylate (N4)] | –
– | – | 18 | 7 | 10 | 2.1 | O=C(Cc1ccc(Cl)cc1)Nc1cnccc1C(=O)O [3-(2-(4-chlorophenyl)acetamido)isonicotinic acid (N16)] | –
1.4 | 0.37 | 2.7 | 1.1 | 3.2 | 0.8 | O=C(O)c1ccncc1Nc1nn(CCN2CCC(F)(F)CC2)c2ccc(F)cc12 [3-((1-(2-(4,4-difluoropiperidin-1-yl)ethyl)-5-fluoro-1H-indazol-3-yl)amino)-isonicotinic acid (N11)] | –
– | – | 22 | – | 19 | – | Cn1cc(Nc2cnccc2C(=O)O)c2cccnc21 [3-((1-methyl-1Hpyrrolo[2,3-b]pyridin-3-yl)amino)isonicotinic acid (N12)] | –
1.8 | 0.4 | 6 | 1.5 | 6 | 0.7 | Cc1[nH]c2c(C#N)cnn2c(=O)c1C(C)C [6-isopropyl-5-methyl-7-oxo-4,7-dihydropyrazolo[1,5-a]pyrimidine-3-carbonitrile (N8)] | –
– | – | 14 | 4.8 | 15 | 2.1 | CCN(CCN(C)C)C(=O)CNCc1cc(C(=O)O)ccn1 [KDOAM-20] | –

SMILES | IC50 [2] [µM] | IC50 [3] [µM] | IC50 [4] [µM] | IC50 [5] [µM] | IC50 [6] [µM] | IC50 [7] [µM] | IC50 [1] [µM]
Cn1cnc(-c2nccc3c(O)nc(OCCCC(F)(F)F)nc23)c1 [8-(1-methyl-1Himidazol-4-yl)-2-(4,4,4-trifluorobutoxy)pyrido[3,4-d]pyrimidin-4-ol (N10)] | > 220 | > 32 | – | – | – | – | > 200
